According to patent US11540516B2, “M-diamide compound and preparation method therefor and use thereof” (priority 2018, dated 2023):
Where two headings read alike, the source gives them in different places.

Legend:
Chilo suppressalis = test: Indoor bioactivity test against Chilo suppressalis (rice stem dip); assay type: in vivo
Method: The leaf dip method was used to assay the insecticidal activity of compounds to strains of Chilo suppressalis. The rice was cultivated in a plastic pot with a diameter of 9 cm and a height of 10 cm. When the rice grew about 25 cm, the aerial part of robust and consistent rice seedlings were selectively cut. Their leaves were removed and their stems of about 8 cm were kept for use. Pour the solution prepared with compound of this invention into the Petri dish (about 40 mL) and immerse the rice stems into the solution for 10 seconds. Take rice stems out and dry them in a cool environment. Put a wet cotton ball at the bottom of finger-like glass tube and 5 rice stems in each tube. Put 10 of 3rd-instar larvae of Chilo suppressa into each tube, which was repeated by 3 times. Seal the tubes with black cotton cloth and tighten them with rubber band. The tubes were placed in a illumination incubator at 28° C. and incubated in the dark. The number of alive Chilo suppressalis and the total number were investigated 3 days after treatment. The mortality was calculated.
According to the above method, Compound 23 and KC2 were selected and parallelly tested against Chilo suppressalis.

Spodoptera litura = test: Indoor bioactivity test against Spodoptera litura (leaf dip); assay type: in vivo; details: foliar
Method: (§1) The leaf dip method was used to assay the insecticidal activity of compounds to strains of Spodoptera litura. Dip the leaf disc into the solution prepared with compound of this invention for 10 seconds, and dry them in a cool environment. Then place them in Petri dish with 4 discs per dish. Put the filter paper into the Petri dish to moisturize it. Put 10 of Spodoptera litura into each dish, which was repeated by 3 times. The dishes were placed in an illumination incubator and incubated at 25° C. with 14 hL: 10 hD illumination. The number of Spodoptera litura death was investigated on the 1st, 2nd and 3rd day after treatment, and the mortality was calculated.
According to the above method, compound 4, 23 and KC1 were selected and parallelly tested against Spodoptera litura to compare the insecticidal activity.

Plutella xylostella = test: Indoor bioactivity test against Plutella xylostella (leaf dip); assay type: in vivo; details: foliar; for mortality at 1 ppm / mortality at 0.4 ppm: 3rd day after treatment
Method: as §1, with “Plutella xylostella.” for “Spodoptera litura.”, “Plutella xylostella” for “Spodoptera litura”
According to the above method, compound 4 and KC1 were selected and parallelly tested against Plutella xylostella to compare their insecticidal activity.

[1] = test system: Spodoptera exigua Hiibner; test: Indoor bioactivity test against Spodoptera exigua Hiibner (leaf dip); assay type: in vivo; details: foliar, 3rd day after treatment
Method: as §1, with “of Spodoptera exigua Hiibner. Dip the” for “of Spodoptera litura. Dip the”, “of Spodoptera exigua Hiibners into each” for “of Spodoptera litura into each”, “of Spodoptera exigua Hiibner death was” for “of Spodoptera litura death was”

Mythimna separata = test: Indoor bioactivity test against Mythimna separata (leaf dip); assay type: in vivo; details: foliar, 3rd day after treatment
Description: The leaf dip method was used to assay the insecticidal activity of compounds to strains of Mythimna sepatata. Cut above ground part of fresh maize seedlings, about 10 cm. Dip the maize seedlings into the solution prepared with compound of this invention for 10 seconds and dry them in a cool environment. Then cut the dry maize seedlings into 3˜5 cm leaf sections and put 3 leaf sections into each petri dish. Put ten of 4th-instar larvae of Mythimna separatas into each dish, which was repeated by 3 times. Then the dishes were placed in an illumination incubator and incubated at 25° C. in the dark. Symptoms were investigated on the 1st, 2nd and 3rd day after treatment, and the mortality was calculated.

soybean thrips = test: Biological activity on soybean thrips in greenhouse (foliar spray); assay type: in vivo; details: for mortality at 10 ppm / mortality at 50 ppm: Thrips, foliar; for No. of thrips 1 d / No. of thrips 6 d: foliar spray, 5% SL
Method: Test system: naturally occurring thrips population on soybeans planted in greenhouse. The basic number of active thripses were more than 100 thripses per trifoliate leaf. Under the same conditions, the sensitivity of the thrips population to Spinetoram (dose: 50 mg/L) is 96.55% mortality on the 6th day after treatment.
The size of the plot: 10 m^2, no repetition.
Test formulation: each compound was made into 5% SL (compound 5%+emulsifier 5%+solvent to make up 100%).
(1) Spraying time: both adult and larva thripses were in the active period. The number of spray: 1 time.
(2) Standard for water usage: when dose was in mg/kg, the upper leaves were wet and water began to drop therefrom.
(3) Survey standard: count three single leaves as one leaf. Three leaves were randomly selected and investigated for the number of adult and larva thripses on them.
[…] 2 surveys were conducted.

[2] = 3rd day after treatment, read-out: mortality of Chilo suppressalis
[3] = 3rd day after treatment, read-out: mortality of Spodoptera litura
[4] = 24 h, read-out: Mortality % 1 d
[5] = 144 h, read-out: Mortality % 6 d
[6] = 24 h, 1 d, read-out: Mortality (%) 1 d
[7] = 48 h, 2 d, read-out: Mortality (%) 2 d
[8] = 72 h, 3 d, read-out: Mortality (%) 3 d

## O=C(Nc1c(Br)cc(C(F)(C(F)(F)F)C(F)(F)F)cc1C(F)(F)F)c1cccc(N(CC2CC2)C(=O)c2ccc(C(F)(F)F)cc2)c1F [Compound 37, N-(2-bromo-4-(perfluoropropan-2-yl)-6-(trifluoromethyl)phenyl)-3-(N-(cyclopropylmethyl)-4-(trifluoromethyl)benzamido)-2-fluorobenzamide]
Chilo suppressalis; [2]
  mortality at 5 ppm: ≥ 90%
Spodoptera litura; [3]
  mortality at 0.4 ppm: ≥ 90%
Plutella xylostella
  mortality at 1 ppm: ≥ 90%
[1]
  mortality at 1 ppm: 90%
Mythimna separata
  mortality at 1 ppm: ≥ 90%

## O=C(Nc1c(Br)cc(C(F)(C(F)(F)F)C(F)(F)F)cc1C(F)(F)F)c1cccc(N(CC2CC2)C(=O)c2ccccc2)c1F [Compound 4, N-(2-bromo-4-(perfluoropropan-2-yl)-6-(trifluoromethyl)phenyl)-3-(N-(cyclopropylmethyl)benzamido)-2-fluorobenzamide]
Chilo suppressalis; [2]
  mortality at 5 ppm: ≥ 90%
Soybean thrips; [4]
  mortality at 10 ppm: 92.4%
  mortality at 50 ppm: 97.7%
Soybean thrips; [5]
  mortality at 10 ppm: 98.3%
  mortality at 50 ppm: 94.8%
Soybean thrips; dose 10 ppm
  No. of thrips 1 d: 20
  No. of thrips 6 d: 2
Soybean thrips; dose 50 ppm
  No. of thrips 1 d: 6
  No. of thrips 6 d: 6
Spodoptera litura; 3rd day after treatment
  mortality at 10 ppm: ≥ 90%
Spodoptera litura; [6]
  mortality at 0.4 ppm: 20%
  mortality at 1 ppm: 73.3%
Spodoptera litura; [7]
  mortality at 0.4 ppm: 26.7%
  mortality at 1 ppm: 73.3%
Spodoptera litura; [8]
  mortality at 0.4 ppm: 26.7%
  mortality at 1 ppm: 73.3%
Plutella xylostella
  mortality at 0.4 ppm: ≥ 90%
Plutella xylostella; [6]
  mortality at 0.04 ppm: 30%
Plutella xylostella; [7]
  mortality at 0.04 ppm: 80%
Plutella xylostella; [8]
  mortality at 0.04 ppm: 100%
[1]
  mortality at 1 ppm: 90%
Mythimna separata
  mortality at 1 ppm: ≥ 90%

## O=C(Nc1c(Br)cc(C(F)(C(F)(F)F)C(F)(F)F)cc1C(F)(F)F)c1cccc(N(CC2CC2)C(=O)c2ccc(Cl)cc2)c1F [Compound 41, N-(2-bromo-4-(perfluoropropan-2-yl)-6-(trifluoromethyl)phenyl)-3-(4-chloro-N-(cyclopropylmethyl)benzamido)-2-fluorobenzamide]
Chilo suppressalis; [2]
  mortality at 5 ppm: ≥ 90%
Spodoptera litura; [3]
  mortality at 0.4 ppm: ≥ 90%
Plutella xylostella
  mortality at 0.4 ppm: ≥ 90%
[1]
  mortality at 1 ppm: 90%
Mythimna separata
  mortality at 1 ppm: ≥ 90%

## COC(c1cc(Br)c(NC(=O)c2cccc(N(CC3CC3)C(=O)c3ccc(C#N)cc3)c2F)c(C(F)(F)F)c1)(C(F)(F)F)C(F)(F)F [Compound 24, N-(2-bromo-4-(1,1,1,3,3,3-hexafluoro-2-methoxypropan-2-yl)-6-(trifluoromethyl)phenyl)-3-(4-cyano-N-(cyclopropylmethyl)benzamido)-2-fluorobenzamide]
other
  melting point: 152.3 to 153.5 °C

## CS(=O)(=O)c1ccc(C(=O)N(CC2CC2)c2cccc(C(=O)Nc3c(Br)cc(C(F)(C(F)(F)F)C(F)(F)F)cc3C(F)(F)F)c2F)cc1 [Compound 57, N-(2-bromo-4-(perfluoropropan-2-yl)-6-(trifluoromethyl)phenyl)-3-(N-(cyclopropylmethyl)-4-(methylsulfonyl)benzamido)-2-fluorobenzamide]
Spodoptera litura; 3rd day after treatment
  mortality at 10 ppm: ≥ 90%
Plutella xylostella
  mortality at 1 ppm: ≥ 90%
[1]
  mortality at 1 ppm: 90%
Mythimna separata
  mortality at 1 ppm: ≥ 90%

## N#Cc1ccc(C(=O)N(c2cccc(C(=O)Nc3c(Br)cc(C(F)(C(F)(F)F)C(F)(F)F)cc3C(F)(F)F)c2F)C(C2CC2)C2CC2)cc1 [Compound 32, N-(2-bromo-4-(perfluoropropan-2-yl)-6-(trifluoromethyl)phenyl)-3-(4-cyano-N-(dicyclopropylmethyl)benzamido)-2-fluorobenzamide]
other
  melting point: 73.5 to 76.1 °C

## N#Cc1ccc(C(=O)N(CC2CC2)c2cccc(C(=O)Nc3c(Br)cc(C(F)(C(F)(F)F)C(F)(F)F)cc3C(F)(F)F)c2F)cc1 [Compound 23, N-(2-bromo-4-(perfluoropropan-2-yl)-6-(trifluoromethyl)phenyl)-3-(4-cyano-N-(cyclopropylmethyl)benzamido)-2-fluorobenzamide]
Chilo suppressalis; [2]
  mortality at 5 ppm: ≥ 90%
Chilo suppressalis; 72 h, 0.4 ppm, 3d
  mortality at 0.4 ppm: 53.3%
Chilo suppressalis; 72 h, 1 ppm, 3d
  mortality at 1 ppm: 93.3%
Chilo suppressalis; 72 h, 2 ppm, 3d
  mortality at 2 ppm: 100%
Chilo suppressalis; 72 h, 3d, read-out: Mortality (%, 3d) 5 ppm
  mortality at 5 ppm: 100%
Spodoptera litura; [3]
  mortality at 0.4 ppm: ≥ 90%
Spodoptera litura; [6]
  mortality at 0.4 ppm: 40%
  mortality at 1 ppm: 93.3%
Spodoptera litura; [7]
  mortality at 0.4 ppm: 46.7%
  mortality at 1 ppm: 100%
Spodoptera litura; [8]
  mortality at 0.4 ppm: 60%
  mortality at 1 ppm: 100%
Plutella xylostella
  mortality at 0.4 ppm: ≥ 90%
[1]
  mortality at 1 ppm: 90%
Mythimna separata
  mortality at 1 ppm: ≥ 90%

## COC(c1cc(Br)c(NC(=O)c2cccc(N(CC3CC3)C(=O)c3ccc(Cl)cc3)c2F)c(C(F)(F)F)c1)(C(F)(F)F)C(F)(F)F [Compound 43, N-(2-bromo-4-(1,1,1,3,3,3-hexafluoro-2-methoxypropan-2-yl)-6-(trifluoromethyl)phenyl)-3-(4-chloro-N-(cyclopropylmethyl)benzamido)-2-fluorobenzamide]
other
  melting point: 139.3 to 140.2 °C

## CC(N(C(=O)c1ccc(C#N)cc1)c1cccc(C(=O)Nc2c(Br)cc(C(F)(C(F)(F)F)C(F)(F)F)cc2C(F)(F)F)c1F)C1(Cl)CC1 (stereo not shown) [Compound 75, N-(2-bromo-4-(perfluoropropan-2-yl)-6-(trifluoromethyl)phenyl)-3-(N-(1-(1-chlorocyclopropyl)ethyl)-4-cyanobenzamido)-2-fluorobenzamide]
Spodoptera litura; 3rd day after treatment
  mortality at 10 ppm: ≥ 90%
Plutella xylostella
  mortality at 1 ppm: ≥ 90%
[1]; 10 ppm
  mortality at 10 ppm: ≥ 90%
Mythimna separata
  mortality at 1 ppm: ≥ 90%

## CC(C1CC1)N(C(=O)c1ccc(S(C)(=O)=O)cc1)c1cccc(C(=O)Nc2c(Br)cc(C(F)(C(F)(F)F)C(F)(F)F)cc2C(F)(F)F)c1F (stereo not shown) [Compound 77, N-(2-bromo-4-(perfluoropropan-2-yl)-6-(trifluoromethyl)phenyl)-3-(N-(1-cyclopropylethyl)-4-(methylsulfonyl)benzamido)-2-fluorobenzamide]
other
  melting point: 76 to 78.8 °C

## O=C(Nc1c(Br)cc(C(F)(C(F)(F)F)C(F)(F)F)cc1C(F)(F)F)c1cccc(N(CC2CC2)C(=O)c2ccc(F)cc2)c1F [Compound 62, N-(2-bromo-4-(perfluoropropan-2-yl)-6-(trifluoromethyl)phenyl)-3-(N-(cyclopropylmethyl)-4-fluorobenzamido)-2-fluorobenzamide]
Chilo suppressalis; [2]
  mortality at 5 ppm: ≥ 90%
Spodoptera litura; [3]
  mortality at 0.4 ppm: ≥ 90%
Plutella xylostella
  mortality at 0.4 ppm: ≥ 90%
[1]
  mortality at 1 ppm: 90%
Mythimna separata
  mortality at 1 ppm: ≥ 90%
